Assay results as given in ChEMBL document CHEMBL2016464, “Identification of Inhibitors of NOD1-Induced Nuclear Factor-κB Activation” (ACS Med Chem Lett, 2011).
Values after ≈ are worked out from the molar mass of the structure shown.

Tests used:
cells = details: Homo sapiens, HEK-293T, 14 h
Description: Inhibition of TNFalpha-induced NFkappaB activation in HEK293T cells after 14 hrs by luciferase reporter gene assay

HEK-293T = assay: Cytotoxicity against HEK293T cells at 20 uM by alamar blue assay; format: cell-based; details: human
[1] = biological target: T1, Nucleotide-binding oligomerization domain-containing protein 1 (Homo sapiens, UniProt Q9Y239)
T1 sequence (Q9Y239 whole entry): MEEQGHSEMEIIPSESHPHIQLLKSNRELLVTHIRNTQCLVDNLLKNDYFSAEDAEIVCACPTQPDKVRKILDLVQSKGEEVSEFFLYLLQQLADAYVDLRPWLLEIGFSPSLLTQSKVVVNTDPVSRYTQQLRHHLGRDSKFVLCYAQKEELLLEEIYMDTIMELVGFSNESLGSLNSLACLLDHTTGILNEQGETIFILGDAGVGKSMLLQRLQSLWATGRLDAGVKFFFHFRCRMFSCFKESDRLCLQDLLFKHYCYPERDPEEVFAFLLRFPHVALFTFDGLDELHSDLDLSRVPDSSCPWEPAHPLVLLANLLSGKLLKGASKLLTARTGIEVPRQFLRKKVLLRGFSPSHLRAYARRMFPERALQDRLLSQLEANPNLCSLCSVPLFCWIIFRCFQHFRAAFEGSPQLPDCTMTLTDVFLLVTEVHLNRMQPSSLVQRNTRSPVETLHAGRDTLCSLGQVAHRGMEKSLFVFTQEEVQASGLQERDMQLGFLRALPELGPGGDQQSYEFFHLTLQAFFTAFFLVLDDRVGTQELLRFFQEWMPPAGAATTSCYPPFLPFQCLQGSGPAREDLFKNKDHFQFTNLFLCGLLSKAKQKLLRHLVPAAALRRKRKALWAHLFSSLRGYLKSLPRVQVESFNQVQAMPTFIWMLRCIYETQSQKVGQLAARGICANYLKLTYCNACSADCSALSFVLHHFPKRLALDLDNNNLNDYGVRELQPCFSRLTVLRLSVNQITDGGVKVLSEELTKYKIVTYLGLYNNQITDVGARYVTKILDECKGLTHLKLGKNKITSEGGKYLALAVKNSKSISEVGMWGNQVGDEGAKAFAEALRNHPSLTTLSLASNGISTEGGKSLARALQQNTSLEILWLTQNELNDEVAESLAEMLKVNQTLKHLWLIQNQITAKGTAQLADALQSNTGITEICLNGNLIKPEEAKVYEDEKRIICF

[2] = biological target: Nucleotide-binding oligomerization domain-containing protein 2 (Homo sapiens, UniProt Q9HC29)
Chain of Nucleotide-binding oligomerization domain-containing protein 2 (Q9HC29 whole entry, the tested form may be a part): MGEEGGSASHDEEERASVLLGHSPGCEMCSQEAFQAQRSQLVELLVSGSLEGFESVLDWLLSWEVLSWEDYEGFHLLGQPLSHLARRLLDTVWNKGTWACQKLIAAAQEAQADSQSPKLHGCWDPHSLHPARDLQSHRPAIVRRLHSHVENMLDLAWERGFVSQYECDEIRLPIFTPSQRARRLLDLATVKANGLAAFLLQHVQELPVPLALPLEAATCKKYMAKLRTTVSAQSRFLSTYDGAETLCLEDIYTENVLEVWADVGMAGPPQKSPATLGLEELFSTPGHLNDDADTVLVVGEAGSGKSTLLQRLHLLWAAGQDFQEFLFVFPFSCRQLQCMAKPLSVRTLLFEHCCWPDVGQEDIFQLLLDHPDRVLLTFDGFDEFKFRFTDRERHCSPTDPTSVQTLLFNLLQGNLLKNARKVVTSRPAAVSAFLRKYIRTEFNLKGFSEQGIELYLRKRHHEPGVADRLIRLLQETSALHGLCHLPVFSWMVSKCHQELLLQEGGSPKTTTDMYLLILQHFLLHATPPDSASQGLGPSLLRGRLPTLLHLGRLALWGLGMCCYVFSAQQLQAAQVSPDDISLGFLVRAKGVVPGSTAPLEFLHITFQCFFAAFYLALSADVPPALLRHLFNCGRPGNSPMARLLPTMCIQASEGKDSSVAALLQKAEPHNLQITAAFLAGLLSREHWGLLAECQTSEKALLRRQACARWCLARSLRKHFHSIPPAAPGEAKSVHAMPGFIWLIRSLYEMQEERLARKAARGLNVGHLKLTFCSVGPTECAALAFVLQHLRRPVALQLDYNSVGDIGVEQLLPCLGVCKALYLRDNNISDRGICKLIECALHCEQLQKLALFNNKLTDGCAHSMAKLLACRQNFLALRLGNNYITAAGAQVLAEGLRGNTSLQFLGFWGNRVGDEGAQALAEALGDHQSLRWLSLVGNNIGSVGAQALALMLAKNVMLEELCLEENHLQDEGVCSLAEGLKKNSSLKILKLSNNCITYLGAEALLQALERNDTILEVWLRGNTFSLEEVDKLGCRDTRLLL

[3] = Solubility of the compound at pH 7.4; format: physicochemical; details: buffer

| Structure (SMILES) | IC50 (cells) | Activity (HEK-293T) | IC50 [1] | IC50 [2] | solubility [3] |
| --- | --- | --- | --- | --- | --- |
| O=C(Nc1ccc(F)cc1)c1ccc(CN2CCCCC2)cc1 | > 20 µM | 0% | – | – | – |
| COc1ccc(NC(=O)c2ccc(CN3CCc4ccccc43)cc2)cc1 | > 20 µM | 0% | > 20 µM | > 20 µM | – |
| CCOC(=O)c1ccc(NC(=O)c2ccc(CN3CCc4ccccc4C3)cc2)cc1 | 0.14 µM | 0% | – | 0.4 µM | – |
| Nc1nc2ccccc2n1CCC(=O)c1ccc(Cl)cc1 | > 20 µM | 0% | – | – | – |
| O=C(Nc1ccc(Cl)cc1)c1ccc(CN2CCc3ccccc3C2)cc1 | 0.49 µM | 0% | – | 3.54 µM | – |
| CCC(=O)N1CCc2cc(S(=O)(=O)N3CCN(c4ccc(C#N)cc4)CC3)ccc21 | > 20 µM | 0% | – | – | – |
| Nc1nc2ccccc2n1Cc1ccc(Cl)cc1 | > 20 µM | 0% | – | – | – |
| CCOc1ccc(C(=O)Nc2ccc(CN3CCc4ccccc4C3)cc2)cc1 | > 20 µM | 0% | > 20 µM | > 20 µM | – |
| CCOc1ccc(NC(=O)c2ccc(CCN3CCc4ccccc4C3)cc2)cc1 | > 20 µM | 0% | > 20 µM | > 20 µM | – |
| Nc1nc2ccccc2n1S(=O)(=O)c1ccc([N+](=O)[O-])cc1 | – | 0% | – | – | – |
| CN(C)c1ccc(NC(=O)c2ccc(CN3CCc4ccccc4C3)cc2)cc1 | 1.83 µM | 0% | – | 3.58 µM | – |
| CCC(=O)N1c2ccc(S(=O)(=O)N3CCN(c4ccc(C(C)=O)cc4)CC3)cc2CC1C (racemic) | 1.63 µM | 0% | – | 1.58 µM | 0.1 µg/mL (≈ 0.22 µM) |
| O=C(Nc1ccc(F)cc1)c1ccc(CN2CCc3ccccc32)cc1 | > 20 µM | 0% | – | – | – |
| O=C(C1CC1)N1CCc2cc(S(=O)(=O)N3CCN(c4ccc([N+](=O)[O-])cc4)CC3)ccc21 | > 20 µM | 0% | – | – | 0.1 µg/mL (≈ 0.219 µM) |
| O=C(Nc1ccc(Br)cc1)c1ccc(CN2CCc3ccccc3C2)cc1 | 1.5 µM | 0% | – | – | – |
| CN(C)c1ccc(NC(=O)c2ccc(CN3CCCCC3)cc2)cc1 | > 20 µM | 0% | – | – | – |
| CC(=O)N1c2ccc(S(=O)(=O)N3CCN(c4ccc([N+](=O)[O-])cc4)CC3)cc2CC1C (racemic) | 3.27 µM | 0% | – | – | – |
| O=C(Nc1ccc(Cl)cc1)c1ccc(CCN2CCc3ccccc3C2)cc1 | > 20 µM | 0% | > 20 µM | > 20 µM | – |
| CCOc1ccc(NC(=O)c2ccc(CN3CCc4ccccc43)cc2)cc1 | > 20 µM | 0% | > 20 µM | > 20 µM | – |
| CC(=O)N1CCc2cc(S(=O)(=O)N3CCN(c4ccc(C#N)cc4)CC3)ccc21 | 8.79 µM | 0% | – | – | 0.1 µg/mL (≈ 0.244 µM) |

| Structure (SMILES) | IC50 (cells) | Activity (HEK-293T) | IC50 [1] | IC50 [2] | solubility [3] |
| --- | --- | --- | --- | --- | --- |
| Nc1nc2ccccc2n1C(=O)Cc1ccccc1 | > 20 µM | 0% | > 20 µM | > 20 µM | – |
| CC(=O)N1CCc2cc(S(=O)(=O)N3CCN(c4ccc(Cl)cc4)CC3)ccc21 | > 20 µM | 0% | – | – | – |
| Nc1nc2ccccc2n1S(=O)(=O)c1ccc(Cl)cc1 | – | 0% | – | – | – |
| COc1ccc(N2CCN(S(=O)(=O)c3ccc4c(c3)CC(C)N4C(=O)C3CC3)CC2)cc1 (racemic) | 3.85 µM | 0% | – | 0.39 µM | 0.1 µg/mL (≈ 0.22 µM) |
| CN(C)c1ccc(NC(=O)c2ccc(CN3CCc4ccccc43)cc2)cc1 | > 20 µM | 0% | – | – | – |
| N#Cc1ccc(N2CCN(S(=O)(=O)c3ccc4c(c3)CCN4C(=O)C3CC3)CC2)cc1 | > 20 µM | 0% | – | – | – |
| O=C(Nc1ccc(OC(F)(F)F)cc1)c1ccc(CN2CCc3ccccc3C2)cc1 | 0.03 µM | 0% | 0.08 µM | 0.03 µM | – |
| COc1ccc(NC(=O)c2ccc(CN3CCCCC3)cc2)cc1 | > 20 µM | 0% | > 20 µM | > 20 µM | – |
| CSc1ccc(NC(=O)c2ccc(CN3CCCCC3)cc2)cc1 | > 20 µM | 0% | – | – | – |
| COc1ccc(S(=O)(=O)n2c(N)nc3ccccc32)cc1 | – | 0% | – | – | – |
| COc1ccc(N2CCN(S(=O)(=O)c3ccc4c(c3)CC(C)N4C(C)=O)CC2)cc1 (racemic) | 4.3 µM | 0% | – | 3.29 µM | 0.1 µg/mL (≈ 0.233 µM) |
| CC1Cc2cc(S(=O)(=O)N3CCN(c4ccc([N+](=O)[O-])cc4)CC3)ccc2N1C(=O)C1CC1 (racemic) | 0.24 µM | 0% | – | 0.2 µM | 0.1 µg/mL (≈ 0.213 µM) |
| CSc1ccc(NC(=O)c2ccc(CN3CCc4ccccc43)cc2)cc1 | > 20 µM | 0% | > 20 µM | > 20 µM | – |
| CC(=O)N1c2ccc(S(=O)(=O)N3CCN(c4ccc(C)cc4)CC3)cc2CC1C (racemic) | 4.32 µM | 0% | – | 3.45 µM | 0.1 µg/mL (≈ 0.242 µM) |
| CCOC(=O)c1ccc(NC(=O)c2ccc(CCN3CCc4ccccc4C3)cc2)cc1 | 10.8 µM | 0% | – | > 20 µM | – |
| CSc1ccc(NC(=O)c2ccc(CN3CCc4ccccc4C3)cc2)cc1 | 0.37 µM | 0% | – | 0.26 µM | – |
| Cc1ccc(NC(=O)c2ccc(CN3CCc4ccccc4C3)cc2)cc1 | > 20 µM | 0% | – | > 20 µM | – |
| COc1ccc(C(=O)Cn2c(N)nc3ccccc32)cc1 | > 20 µM | 0% | > 20 µM | > 20 µM | – |
| CCOc1ccc(NC(=O)c2ccc(CN3CCCCC3)cc2)cc1 | > 20 µM | 0% | – | – | – |
| CC(=O)c1ccc(N2CCN(S(=O)(=O)c3ccc4c(c3)CC(C)N4C(C)=O)CC2)cc1 (racemic) | 6 µM | 0% | – | 3.72 µM | 0.1 µg/mL (≈ 0.226 µM) |

| Structure (SMILES) | IC50 (cells) | Activity (HEK-293T) | IC50 [1] | IC50 [2] | solubility [3] |
| --- | --- | --- | --- | --- | --- |
| Nc1nc2ccccc2n1S(=O)(=O)c1ccccc1 | > 20 µM | 0% | – | – | – |
| CC(=O)c1ccc(N2CCN(S(=O)(=O)c3ccc4c(c3)CCN4C(C)=O)CC2)cc1 | > 20 µM | 0% | – | – | – |
| CCOc1ccc(NC(=O)c2ccc(CN3CCc4ccccc4C3)cc2)cc1 | 2.05 µM | 0% | – | 0.57 µM | – |
| Cc1ccc(S(=O)(=O)n2c(S)nc3ccc(C)cc32)cc1 | > 20 µM | 0% | – | – | – |
| Nc1nc2ccccc2n1C(=O)c1ccc(F)cc1 | – | 0% | – | – | – |
| CCC(=O)N1CCc2cc(S(=O)(=O)N3CCN(c4ccc([N+](=O)[O-])cc4)CC3)ccc21 | > 20 µM | 0% | – | – | – |
| CC(=O)N1CCc2cc(S(=O)(=O)N3CCN(c4ccc([N+](=O)[O-])cc4)CC3)ccc21 | > 20 µM | 0% | – | – | – |
| CC1Cc2cc(S(=O)(=O)N3CCN(c4ccc(Cl)cc4)CC3)ccc2N1C(=O)C1CC1 (racemic) | 7.26 µM | 0% | – | 3.63 µM | 0.1 µg/mL (≈ 0.217 µM) |
| CCC(=O)N1c2ccc(S(=O)(=O)N3CCN(c4ccc([N+](=O)[O-])cc4)CC3)cc2CC1C (racemic) | 4.92 µM | 0% | – | 1.55 µM | 0.1 µg/mL (≈ 0.218 µM) |
| Cc1ccc(S(=O)(=O)n2c(C)nc3ccccc32)cc1 | – | 0% | – | – | – |
| CCC(=O)N1c2ccc(S(=O)(=O)N3CCN(c4ccc(Cl)cc4)CC3)cc2CC1C (racemic) | 0.58 µM | 0% | – | 0.6 µM | 0.1 µg/mL (≈ 0.223 µM) |
| COc1ccc(NC(=O)c2ccc(CN3CCc4ccccc4C3)cc2)cc1 | 0.65 µM | 0% | – | 0.78 µM | – |
| CC(=O)c1ccc(N2CCN(S(=O)(=O)c3ccc4c(c3)CCN4C(=O)C3CC3)CC2)cc1 | > 20 µM | 0% | – | – | – |
| Cc1ccc(S(=O)(=O)n2c(N)nc3cc(C)c(C)cc32)cc1 | > 20 µM | 0% | – | – | – |
| CC(=O)N1c2ccc(S(=O)(=O)N3CCN(c4ccccc4)CC3)cc2CC1C (racemic) | 14.1 µM | 0% | – | 8.27 µM | 0.1 µg/mL (≈ 0.25 µM) |
| O=C(Nc1ccc(F)cc1)c1ccc(CN2CCc3ccccc3C2)cc1 | 2.88 µM | 0% | – | 1.85 µM | – |
| Nc1nc2ccccc2n1C(=O)c1ccc(Cl)cc1Cl | – | 0% | – | – | – |
| Cc1ccc(S(=O)(=O)n2cnc3ccccc32)cc1 | > 20 µM | 0% | – | > 20 µM | – |
| CC(=O)N1c2ccc(S(=O)(=O)N3CCN(c4ccc(Cl)cc4)CC3)cc2CC1C (racemic) | 5.76 µM | 0% | – | 1.75 µM | 0.1 µg/mL (≈ 0.23 µM) |
